# Molecular target: hMC2 receptor (Homo sapiens, UniProt Q01718)
# Assay: hMC2 membrane binding assay ([125I]ACTH (1-39) Tyr23, SPA)
# Set-up: scale not given here
# Details: crude hMC2R membranes from CRE-bla-CHO-K1 cells expressing hMC2 receptor and hMRAP; [125I]ACTH (1-39) Tyr23 0.2 nM; 1.5 hours at room temperature; read-out: MC2R binding potency
# Method in brief: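 CRE-bla-CHO-K1 membranes co-expressing hMC2 receptor and hMRAP, preincubated with WGA PVT SPA beads in pH 7.4 HEPES/MgCl2/CaCl2/0.2% BSA buffer. Compounds (typically 0–10,000 nM final) compete with 0.2 nM [125I]ACTH(1-39) Tyr23 for 1.5 h at room temperature. SPA counts give Ki by non-linear regression.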
# hMC2 receptor, sequence (Q01718 whole entry): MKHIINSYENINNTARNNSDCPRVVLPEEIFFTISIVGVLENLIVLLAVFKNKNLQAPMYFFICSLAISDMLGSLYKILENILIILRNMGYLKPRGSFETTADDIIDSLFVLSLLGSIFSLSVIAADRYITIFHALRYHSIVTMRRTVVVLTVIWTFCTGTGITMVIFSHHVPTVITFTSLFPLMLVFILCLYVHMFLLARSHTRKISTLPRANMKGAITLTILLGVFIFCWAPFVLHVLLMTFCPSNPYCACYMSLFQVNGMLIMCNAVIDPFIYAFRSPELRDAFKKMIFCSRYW
# hMC2 receptor, sequence (Q8TCY5 whole entry partner): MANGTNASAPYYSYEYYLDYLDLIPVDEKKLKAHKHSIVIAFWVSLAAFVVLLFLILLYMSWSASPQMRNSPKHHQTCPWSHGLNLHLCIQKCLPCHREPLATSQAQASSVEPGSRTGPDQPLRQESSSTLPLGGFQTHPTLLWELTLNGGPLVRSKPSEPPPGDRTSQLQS
row,Structure (SMILES),Ki
1,"CCOc1ncccc1-c1ccc(N2CCN(C(=O)c3ccc(Cl)cc3C(F)(F)F)C[C@H]2CC)c(C(=O)N[C@@H]2CN3CCC2CC3)n1 [Compound 1-398, N-[(3S)-1-azabicyclo[2.2.2]octan-3-yl]-5-[(2R)-4-[4-chloro-2-(trifluoromethyl)benzoyl]-2-ethylpiperazin-1-yl]-2′-ethoxy-[2,3′-bipyridine]-6-carboxamide]",< 10 nM
2,"CCOc1ncccc1-c1ccc(N2CCN(C(=O)C3(C(F)(F)F)CCCC3)C[C@H]2CC)c(C(=O)NC[C@@H]2CCN2)n1 [Compound 1-329, N-{[(2S)-azetidin-2-yl]methyl}-2′-ethoxy-5-[(2R)-2-ethyl-4-[1-(trifluoromethyl)cyclopentanecarbonyl]piperazin-1-yl]-[2,3′-bipyridine]-6-carboxamide]",< 10 nM
3,"CCOc1ccccc1-c1ccc(N2CCN(C(=O)N3CCC[C@H]3C(C)(C)F)C[C@H]2CC)c(C(=O)N[C@@H]2CCN(C)C2)n1 [Compound 1-412, 6-(2-ethoxyphenyl)-3-[(2R)-2-ethyl-4-[(2S)-2-(2-fluoropropan-2-yl)pyrrolidine-1-carbonyl]piperazin-1-yl]-N-[(3R)-1-methylpyrrolidin-3-yl]pyridine-2-carboxamide]",< 10 nM
4,"CCOc1ncccc1-c1ccc(N2CCN(C(=O)c3ccccc3C(F)(F)F)C[C@H]2CC)c(C(=O)NCCN)c1 [Compound 1-62, N-(2-aminoethyl)-5-(2-ethoxypyridin-3-yl)-2-[(2R)-2-ethyl-4-[2-(trifluoromethyl)benzoyl]piperazin-1-yl]benzamide]",< 10 nM
5,"CCOc1ncccc1-c1ccc(N2CCN(C(=O)c3ccc(Cl)cc3C(F)(F)F)C[C@H]2CC)c(C(=O)NCCN)c1 [Compound 1-37, N-(2-aminoethyl)-2-[(2R)-4-[4-chloro-2-(trifluoromethyl)benzoyl]-2-ethylpiperazin-1-yl]-5-(2-ethoxypyridin-3-yl)benzamide]",< 10 nM
6,"CCOc1ncccc1-c1ccc(N2CCN(C(=O)C3(CC)CCCC3)C[C@H]2CC)c(C(=O)NCCNC)n1 [Compound 1-264, 2′-ethoxy-5-[(2R)-2-ethyl-4-(1-ethylcyclopentanecarbonyl)piperazin-1-yl]-N-[2-(methylamino)ethyl]-[2,3′-bipyridine]-6-carboxamide]",< 10 nM
7,"CCOc1ccccc1-c1ccc(N2CCN(C(=O)OC(C(C)(C)C)C(F)(F)F)C[C@H]2CC)c(C(=O)N[C@@H]2CCNC2)n1 (stereo partly drawn) [Compound 1-348, 1,1,1-trifluoro-3,3-dimethylbutan-2-yl (3R)-4-[6-(2-ethoxyphenyl)-2-{[(3R)-pyrrolidin-3-yl]carbamoyl}pyridin-3-yl]-3-ethylpiperazine-1-carboxylate]",< 10 nM
8,"CCOc1ncccc1-c1ccc(N2CCN(C(=O)N3CCCC3(C)C(F)(F)F)C[C@H]2CC)c(C(=O)N[C@@H]2CCNC2)n1 (stereo partly drawn) [Compound 1-326, 2′-ethoxy-5-[(2R)-2-ethyl-4-[2-methyl-2-(trifluoromethyl)pyrrolidine-1-carbonyl]piperazin-1-yl]-N-[(3R)-pyrrolidin-3-yl]-[2,3′-bipyridine]-6-carboxamide]",< 10 nM
9,"CCOc1ncccc1-c1ccc(N2CCN(C(=O)c3sc(Cl)cc3Cl)C[C@H]2CC)c(C(=O)N[C@@H]2CCN(C)C2)n1 [Compound 1-380, 5-[(2R)-4-(3,5-dichlorothiophene-2-carbonyl)-2-ethylpiperazin-1-yl]-2′-ethoxy-N-[(3R)-1-methylpyrrolidin-3-yl]-[2,3′-bipyridine]-6-carboxamide]",< 10 nM
10,"CCOc1ccncc1-c1ccc(N2CCN(C(=O)c3ccc(C(F)(F)F)cc3Cl)C[C@H]2CC)c(C(=O)NCCN)c1 [Compound 1-35, N-(2-aminoethyl)-2-[(2R)-4-[2-chloro-4-(trifluoromethyl)benzoyl]-2-ethylpiperazin-1-yl]-5-(4-ethoxypyridin-3-yl)benzamide]",< 10 nM
11,"CCOc1ncccc1-c1ccc(N2CCN(C(=O)c3ccc(C)cc3C)C[C@H]2CC)c(C(=O)NCCN)c1 [Compound 1-60, N-(2-aminoethyl)-2-[(2R)-4-(2,4-dimethylbenzoyl)-2-ethylpiperazin-1-yl]-5-(2-ethoxypyridin-3-yl)benzamide]",< 10 nM
12,"CCOc1ncccc1-c1ccc(N2CCN(C(=O)N3CCc4cc(F)cc(C#N)c43)C[C@H]2CC)c(C(=O)N[C@H]2CCN(C)C2)n1 [Compound 1-423, 5-[(2R)-4-(7-cyano-5-fluoro-2,3-dihydro-1H-indole-1-carbonyl)-2-ethylpiperazin-1-yl]-2′-ethoxy-N-[(3S)-1-methylpyrrolidin-3-yl]-[2,3′-bipyridine]-6-carboxamide]",< 10 nM
13,"CCOc1ncccc1-c1ccc(N2CCN(C(=O)c3ccc(Cl)cc3C(F)(F)F)C[C@H]2CC)c(C(=O)NCCN)c1F [Compound 1-69, N-(2-aminoethyl)-6-[(2R)-4-[4-chloro-2-(trifluoromethyl)benzoyl]-2-ethylpiperazin-1-yl]-3-(2-ethoxypyridin-3-yl)-2-fluorobenzamide]",< 10 nM
14,"CCOc1ccccc1-c1ccc(N2CCN(C(=O)C3(C(F)(F)F)CCCC3)C[C@H]2CC)c(C(=O)N[C@@H]2CCNC2)n1 [Compound 1-304, 6-(2-ethoxyphenyl)-3-[(2R)-2-ethyl-4-[1-(trifluoromethyl)cyclopentanecarbonyl]piperazin-1-yl]-N-[(3R)-pyrrolidin-3-yl]pyridine-2-carboxamide]",< 10 nM

# The remaining lines, values ahead:
row,Ki,Structure (SMILES)
1,< 10 nM,"CCOc1ncccc1-c1ccc(N2CCN(C(=O)c3ccc(Cl)cc3N(C)C)C[C@H]2CC)c(C(=O)N[C@@H]2CCNC2)c1 [Compound 1-91, 2-[(2R)-4-[4-chloro-2-(dimethylamino)benzoyl]-2-ethylpiperazin-1-yl]-5-(2-ethoxypyridin-3-yl)-N-[(3R)-pyrrolidin-3-yl]benzamide]"
2,10 to 100 nM,"CC[C@@H]1CN(C(=O)c2ccc(C(F)(F)F)cc2Cl)CCN1c1ccc(-c2cccc(F)c2F)cc1C(=O)NCCN [Compound 1-1, N-(2-aminoethyl)-4-[(2R)-4-[2-chloro-4-(trifluoromethyl)benzoyl]-2-ethylpiperazin-1-yl]-2′,3′-difluoro-[1,1′-biphenyl]-3-carboxamide]"
3,< 10 nM,"CC[C@@H]1CN(C(=O)c2ccc(Cl)cc2C(F)(F)F)CCN1c1ccc(-c2cccnc2OC)cc1C(=O)NCCN [Compound 1-71, N-(2-aminoethyl)-2-[(2R)-4-[4-chloro-2-(trifluoromethyl)benzoyl]-2-ethylpiperazin-1-yl]-5-(2-methoxypyridin-3-yl)benzamide]"
4,< 10 nM,"CCOc1ncccc1-c1ccc(N2CCN(C(=O)C3(C(F)(F)F)CC4CCC3C4)C[C@H]2CC)c(C(=O)N[C@@H]2CCNC2)n1 (stereo partly drawn) [Compound 1-297, 2′-ethoxy-5-[(2R)-2-ethyl-4-[2-(trifluoromethyl)bicyclo[2.2.1]heptane-2-carbonyl]piperazin-1-yl]-N-[(3R)-pyrrolidin-3-yl]-[2,3′-bipyridine]-6-carboxamide]"
5,< 10 nM,"CCOc1ncccc1-c1ccc(N2CCN(C(=O)C3(C(F)(F)F)CC(F)(F)C3)C[C@H]2CC)c(C(=O)N[C@@H]2CCNC2)n1 [Compound 1-298, 5-[(2R)-4-[3,3-difluoro-1-(trifluoromethyl)cyclobutanecarbonyl]-2-ethylpiperazin-1-yl]-2′-ethoxy-N-[(3R)-pyrrolidin-3-yl]-[2,3′-bipyridine]-6-carboxamide]"
6,< 10 nM,"CCOc1ncccc1-c1ccc(N2CCN(C(=O)C3(c4ccccc4)CCC3)C[C@H]2CC)c(C(=O)N[C@@H]2CCNC2)n1 [Compound 1-353, 2′-ethoxy-5-[(2R)-2-ethyl-4-(1-phenylcyclobutanecarbonyl)piperazin-1-yl]-N-[(3R)-pyrrolidin-3-yl]-[2,3′-bipyridine]-6-carboxamide]"
7,< 10 nM,"CCOc1ncccc1-c1ccc(N2CCN(C(=O)c3ccc(F)cc3C(F)(F)F)C[C@H]2CC)c(C(=O)NCCN(C)C)c1F [Compound 1-174, N-[2-(dimethylamino)ethyl]-3-(2-ethoxypyridin-3-yl)-6-[(2R)-2-ethyl-4-[4-fluoro-2-(trifluoromethyl)benzoyl]piperazin-1-yl]-2-fluorobenzamide]"
8,< 10 nM,"CCOc1ncccc1-c1ccc(N2CCN(C(=O)OC(C(C)(C)C)C(F)(F)F)C[C@H]2CC)c(C(=O)N[C@@H]2CCNC2)n1 (stereo partly drawn) [Compound 1-312, 1,1,1-trifluoro-3,3-dimethylbutan-2-yl (3R)-4-(2′-ethoxy-6-{[(3R)-pyrrolidin-3-yl]carbamoyl}-[2,3′-bipyridin]-5-yl)-3-ethylpiperazine-1-carboxylate]"
9,< 10 nM,"CCOc1ccccc1-c1ccc(N2CCN(C(=O)N3CCCC[C@H]3C(F)(F)F)C[C@H]2CC)c(C(=O)N[C@H]2CCN(C)C2)n1 [Compound 1-435, 6-(2-ethoxyphenyl)-3-[(2R)-2-ethyl-4-[(2S)-2-(trifluoromethyl)piperidine-1-carbonyl]piperazin-1-yl]-N-[(3S)-1-methylpyrrolidin-3-yl]pyridine-2-carboxamide]"
10,< 10 nM,"CCOc1ncccc1-c1ccc(N2CCN(C(=O)C3(C(F)(F)F)CCCC3)C[C@H]2CC)c(C(=O)NC[C@H]2CCN2C)n1 [Compound 1-330, 2′-ethoxy-5-[(2R)-2-ethyl-4-[1-(trifluoromethyl)cyclopentanecarbonyl]piperazin-1-yl]-N-{[(2R)-1-methylazetidin-2-yl]methyl}-[2,3′-bipyridine]-6-carboxamide]"
11,< 10 nM,"CCOc1ncccc1-c1ccc(N2CCN(C(=O)c3ccc(F)cc3Cl)C[C@H]2CC)c(C(=O)NCCNC)c1F [Compound 1-96, 6-[(2R)-4-(2-chloro-4-fluorobenzoyl)-2-ethylpiperazin-1-yl]-3-(2-ethoxypyridin-3-yl)-2-fluoro-N-[2-(methylamino)ethyl]benzamide]"
12,< 10 nM,"CCOc1ncccc1-c1ccc(N2CCN(C(=O)c3ccc(Cl)cc3C(F)F)C[C@H]2CC)c(C(=O)NCCN(C)C)c1F [Compound 1-184, 6-[(2R)-4-[4-chloro-2-(difluoromethyl)benzoyl]-2-ethylpiperazin-1-yl]-N-[2-(dimethylamino)ethyl]-3-(2-ethoxypyridin-3-yl)-2-fluorobenzamide]"
